Laboratory results reported in ChEMBL document CHEMBL1151757, “Synthesis, radiosynthesis, and biological evaluation of fluorine-18-labeled 2beta-carbo(fluoroalkoxy)-3beta-(3'-((Z)-2-haloethenyl)phenyl)nortropanes: candidate radioligands for in vivo imaging of the serotonin transporter with positron emission tomography” (J Med Chem, 2008).

Tests used:
Midbrain [1] = experiment: Drug uptake in anesthetized cynomolgus monkey brain midbrain after 205 mins postinjection; type: ADME, organism-based, Macaca fascicularis; conditions: in vivo
Putamen [2] = experiment: Drug uptake in anesthetized cynomolgus monkey brain putamen after 45 mins postinjection; type: ADME, organism-based, Macaca fascicularis; parameters: unit not given here; conditions: in vivo, 0.75 h
Thalamus [3] = experiment: Drug uptake in anesthetized cynomolgus monkey brain thalamus after 185 mins postinjection; type: ADME, organism-based, Macaca fascicularis; conditions: in vivo
Medulla [4] = experiment: Drug uptake in anesthetized cynomolgus monkey brain medulla after 85 mins postinjection; type: ADME, organism-based, Macaca fascicularis; conditions: in vivo
[5] = Ratio of drug uptake in frontal lobe to cerebellum in anesthetized cynomolgus monkey after 3.5 mins postinjection; type: ADME, organism-based, Macaca fascicularis; conditions: in vivo
Putamen [6] = experiment: Drug uptake in anesthetized cynomolgus monkey brain putamen after 35 mins postinjection; type: ADME, organism-based, Macaca fascicularis; parameters: unit not given here; conditions: in vivo
[7] = Drug uptake in anesthetized cynomolgus monkey brain occipital lobe after 195 mins postinjection; type: ADME, organism-based, Macaca fascicularis; conditions: in vivo, 3.25 h
[8] = Drug uptake in anesthetized cynomolgus monkey brain occipital lobe after 18.5 mins postinjection; type: ADME, organism-based, Macaca fascicularis; conditions: in vivo
[9] = Drug uptake in anesthetized cynomolgus monkey brain cerebellum after 65 mins postinjection; type: ADME, organism-based, Macaca fascicularis; conditions: in vivo
Caudate [10] = experiment: Drug uptake in anesthetized cynomolgus monkey brain caudate after 165 mins postinjection; type: ADME, organism-based, Macaca fascicularis, Caudate nucleus; conditions: in vivo, 2.75 h
Midbrain [11] = experiment: Drug uptake in anesthetized cynomolgus monkey brain midbrain after 225 mins postinjection; type: ADME, organism-based, Macaca fascicularis; conditions: in vivo, 3.75 h
Putamen [12] = experiment: Drug uptake in anesthetized cynomolgus monkey brain putamen after 145 mins postinjection; type: ADME, organism-based, Macaca fascicularis; conditions: in vivo
Thalamus [13] = experiment: Drug uptake in anesthetized cynomolgus monkey brain thalamus after 15.5 mins postinjection; type: ADME, organism-based, Macaca fascicularis; parameters: unit not given here; conditions: in vivo
[14] = Ratio of drug uptake in caudate to cerebellum in anesthetized cynomolgus monkey after 135 mins postinjection; type: ADME, organism-based, Macaca fascicularis; conditions: in vivo, 2.25 h
Thalamus [15] = experiment: Drug uptake in anesthetized cynomolgus monkey brain thalamus after 3.5 mins postinjection; type: ADME, organism-based, Macaca fascicularis; parameters: unit not given here; conditions: in vivo
Pons [16] = experiment: Drug uptake in anesthetized cynomolgus monkey brain pons after 35 mins postinjection; type: ADME, organism-based, Macaca fascicularis; conditions: in vivo
Putamen [17] = experiment: Drug uptake in anesthetized cynomolgus monkey brain putamen after 85 mins postinjection; type: ADME, organism-based, Macaca fascicularis; parameters: unit not given here; conditions: in vivo
Putamen [18] = experiment: Drug uptake in anesthetized cynomolgus monkey brain putamen after 1.5 mins postinjection; type: ADME, organism-based, Macaca fascicularis; conditions: in vivo, 0.025 h
[19] = Ratio of drug uptake in medulla to cerebellum in anesthetized cynomolgus monkey after 85 mins postinjection; type: ADME, organism-based, Macaca fascicularis; conditions: in vivo
Midbrain [20] = experiment: Drug uptake in anesthetized cynomolgus monkey brain midbrain after 4.5 mins postinjection; type: ADME, organism-based, Macaca fascicularis; parameters: unit not given here; conditions: in vivo, 0.075 h
[21] = Ratio of drug uptake in frontal lobe to cerebellum in anesthetized cynomolgus monkey after 95 mins postinjection; type: ADME, organism-based, Macaca fascicularis; conditions: in vivo
Medulla [22] = experiment: Drug uptake in anesthetized cynomolgus monkey brain medulla after 215 mins postinjection; type: ADME, organism-based, Macaca fascicularis; conditions: in vivo
[23] = Ratio of drug uptake in midbrain to cerebellum in anesthetized cynomolgus monkey after 215 mins postinjection; type: ADME, organism-based, Macaca fascicularis; conditions: in vivo
Midbrain [24] = experiment: Drug uptake in anesthetized cynomolgus monkey brain midbrain after 45 mins postinjection; type: ADME, organism-based, Macaca fascicularis; parameters: unit not given here; conditions: in vivo, 0.75 h
Caudate [25] = experiment: Drug uptake in anesthetized cynomolgus monkey brain caudate after 1.5 mins postinjection; type: ADME, organism-based, Macaca fascicularis, Caudate nucleus; conditions: in vivo, 0.025 h
[26] = Ratio of drug uptake in medulla to cerebellum in anesthetized cynomolgus monkey after 195 mins postinjection; type: ADME, organism-based, Macaca fascicularis; conditions: in vivo, 3.25 h
Medulla [27] = experiment: Drug uptake in anesthetized cynomolgus monkey brain medulla after 235 mins postinjection; type: ADME, organism-based, Macaca fascicularis; conditions: in vivo
Midbrain [28] = experiment: Drug uptake in anesthetized cynomolgus monkey brain midbrain after 105 mins postinjection; type: ADME, organism-based, Macaca fascicularis; parameters: unit not given here; conditions: in vivo, 1.75 h
[29] = Drug uptake in anesthetized cynomolgus monkey brain cerebellum after 205 mins postinjection; type: ADME, organism-based, Macaca fascicularis; conditions: in vivo
[30] = Ratio of drug uptake in caudate to cerebellum in anesthetized cynomolgus monkey after 18.5 mins postinjection; type: ADME, organism-based, Macaca fascicularis; conditions: in vivo
Putamen [31] = experiment: Drug uptake in anesthetized cynomolgus monkey brain putamen after 9.5 mins postinjection; type: ADME, organism-based, Macaca fascicularis; parameters: unit not given here; conditions: in vivo
Putamen [32] = experiment: Drug uptake in anesthetized cynomolgus monkey brain putamen after 3.5 mins postinjection; type: ADME, organism-based, Macaca fascicularis; conditions: in vivo
Thalamus [33] = experiment: Drug uptake in anesthetized cynomolgus monkey brain thalamus after 27.5 mins postinjection; type: ADME, organism-based, Macaca fascicularis; parameters: unit not given here; conditions: in vivo
Midbrain [34] = experiment: Drug uptake in anesthetized cynomolgus monkey brain midbrain after 115 mins postinjection; type: ADME, organism-based, Macaca fascicularis; parameters: unit not given here; conditions: in vivo
[35] = Drug uptake in anesthetized cynomolgus monkey brain occipital lobe after 65 mins postinjection; type: ADME, organism-based, Macaca fascicularis; conditions: in vivo
Putamen [36] = experiment: Drug uptake in anesthetized cynomolgus monkey brain putamen after 115 mins postinjection; type: ADME, organism-based, Macaca fascicularis; parameters: unit not given here; conditions: in vivo
[37] = Drug uptake in anesthetized cynomolgus monkey brain frontal lobe after 2.5 mins postinjection; type: ADME, organism-based, Macaca fascicularis; conditions: in vivo
[38] = Ratio of drug uptake in putamen to cerebellum in anesthetized cynomolgus monkey after 3.5 mins postinjection; type: ADME, organism-based, Macaca fascicularis; conditions: in vivo
Medulla [39] = experiment: Drug uptake in anesthetized cynomolgus monkey brain medulla after 135 mins postinjection; type: ADME, organism-based, Macaca fascicularis; conditions: in vivo, 2.25 h
[40] = Drug uptake in anesthetized cynomolgus monkey brain cerebellum after 195 mins postinjection; type: ADME, organism-based, Macaca fascicularis; conditions: in vivo, 3.25 h
[41] = Drug uptake in anesthetized cynomolgus monkey brain frontal lobe after 65 mins postinjection; type: ADME, organism-based, Macaca fascicularis; conditions: in vivo
Putamen [42] = experiment: Drug uptake in anesthetized cynomolgus monkey brain putamen after 185 mins postinjection; type: ADME, organism-based, Macaca fascicularis; conditions: in vivo
Caudate [43] = experiment: Drug uptake in anesthetized cynomolgus monkey brain caudate after 15.5 mins postinjection; type: ADME, organism-based, Macaca fascicularis, Caudate nucleus; conditions: in vivo
Midbrain [44] = experiment: Drug uptake in anesthetized cynomolgus monkey brain midbrain after 2.5 mins postinjection; type: ADME, organism-based, Macaca fascicularis; parameters: unit not given here; conditions: in vivo
Pons [45] = experiment: Drug uptake in anesthetized cynomolgus monkey brain pons after 9.5 mins postinjection; type: ADME, organism-based, Macaca fascicularis; conditions: in vivo
[46] = Ratio of drug uptake in putamen to cerebellum in anesthetized cynomolgus monkey after 35 mins postinjection; type: ADME, organism-based, Macaca fascicularis; conditions: in vivo
Caudate [47] = experiment: Drug uptake in anesthetized cynomolgus monkey brain caudate after 3.5 mins postinjection; type: ADME, organism-based, Macaca fascicularis, Caudate nucleus; conditions: in vivo
[48] = Ratio of drug uptake in medulla to cerebellum in anesthetized cynomolgus monkey after 1.5 mins postinjection; type: ADME, organism-based, Macaca fascicularis; conditions: in vivo, 0.025 h
[49] = Drug uptake in anesthetized cynomolgus monkey brain cerebellum after 12.5 mins postinjection; type: ADME, organism-based, Macaca fascicularis; conditions: in vivo
[50] = Ratio of drug uptake in thalamus to cerebellum in anesthetized cynomolgus monkey after 155 mins postinjection; type: ADME, organism-based, Macaca fascicularis; conditions: in vivo
Caudate [51] = experiment: Drug uptake in anesthetized cynomolgus monkey brain caudate after 235 mins postinjection; type: ADME, organism-based, Macaca fascicularis, Caudate nucleus; conditions: in vivo
[52] = Ratio of drug uptake in medulla to cerebellum in anesthetized cynomolgus monkey after 9.5 mins postinjection; type: ADME, organism-based, Macaca fascicularis; conditions: in vivo
[53] = Ratio of drug uptake in occipital lobe to cerebellum in anesthetized cynomolgus monkey after 95 mins postinjection; type: ADME, organism-based, Macaca fascicularis; conditions: in vivo
[54] = Ratio of drug uptake in midbrain to cerebellum in anesthetized cynomolgus monkey after 18.5 mins postinjection; type: ADME, organism-based, Macaca fascicularis; conditions: in vivo
[55] = Ratio of drug uptake in midbrain to cerebellum in anesthetized cynomolgus monkey after 22.5 mins postinjection; type: ADME, organism-based, Macaca fascicularis; conditions: in vivo, 0.375 h
[56] = Ratio of drug uptake in thalamus to cerebellum in anesthetized cynomolgus monkey after 115 mins postinjection; type: ADME, organism-based, Macaca fascicularis; conditions: in vivo
[57] = Ratio of drug uptake in midbrain to cerebellum in anesthetized cynomolgus monkey after 9.5 mins postinjection; type: ADME, organism-based, Macaca fascicularis; conditions: in vivo

Work on `O=C(OCC[18F])C1C2CCC(CC1c1ccc(/C=C\I)cc1)N2` (configuration not stated) yielded a Drug uptake (Midbrain [1]) of 4.57, a Drug uptake (Putamen [2]) of 3.8 and a Drug uptake (Thalamus [3]) of 3.8. For the same compound, the Drug uptake (Medulla [4]) was 3.91, the Ratio [5] was 0.5 and the Drug uptake (Putamen [6]) was 3.57. The Drug uptake [7] was 1.82, the Drug uptake [8] was 1.81 and the Drug uptake [9] was 2.44. The Drug uptake (Caudate [10]) was 2.99, the Drug uptake (Midbrain [11]) was 4.51 and the Drug uptake (Putamen [12]) was 4.31. The Drug uptake (Thalamus [13]) was 2.54, the Ratio [14] was 1.8 and the Drug uptake (Thalamus [15]) was 0.76. The Drug uptake (Pons [16]) was 2.74, the Drug uptake (Putamen [17]) was 4.32 and the Drug uptake (Putamen [18]) was 0.11. It also gave a Ratio [19] of 1.8, a Drug uptake (Midbrain [20]) of 1.23 and a Ratio [21] of 0.9. For the same compound, the Drug uptake (Medulla [22]) was 3.32, the Ratio [23] was 3.9 and the Drug uptake (Midbrain [24]) was 3.76. For the same compound, the Drug uptake (Caudate [25]) was 0.07, the Ratio [26] was 2.6 and the Drug uptake (Medulla [27]) was 3.3. For the same compound, the Drug uptake (Midbrain [28]) was 4.55, the Drug uptake [29] was 1.22 and the Ratio [30] was 0.7. It also gave a Drug uptake (Putamen [31]) of 2.38, a Drug uptake (Putamen [32]) of 0.82 and a Drug uptake (Thalamus [33]) of 3.06. It also gave a Drug uptake (Midbrain [34]) of 4.5, a Drug uptake [35] of 2.38 and a Drug uptake (Putamen [36]) of 4.34. For the same compound, the Drug uptake [37] was 0.24, the Ratio [38] was 1 and the Drug uptake (Medulla [39]) was 3.69. It also gave a Drug uptake [40] of 1.29, a Drug uptake [41] of 2.03 and a Drug uptake (Putamen [42]) of 4.01. It also gave a Drug uptake (Caudate [43]) of 1.74, a Drug uptake (Midbrain [44]) of 0.4 and a Drug uptake (Pons [45]) of 1.62. The Ratio [46] was 1.4, the Drug uptake (Caudate [47]) was 0.56 and the Ratio [48] was 1.4. The Drug uptake [49] was 2.13, the Ratio [50] was 2.7 and the Drug uptake (Caudate [51]) was 2.61.
`O=C(OCC[18F])C1C2CCC(CC1c1cccc(/C=C\I)c1)N2` (configuration not stated) showed a Drug uptake (Putamen [2]) of 4.41, a Ratio [52] of 0.9 and a Drug uptake (Medulla [4]) of 3.75. The Ratio [5] was 0.6, the Drug uptake (Putamen [6]) was 4.28 and the Ratio [53] was 0.9. For the same compound, the Drug uptake [8] was 2.84, the Drug uptake [9] was 3.23 and the Drug uptake (Caudate [10]) was 2.56. It also gave a Drug uptake (Midbrain [11]) of 2.99, a Drug uptake (Putamen [12]) of 3.27 and a Drug uptake (Thalamus [13]) of 3.48. The Drug uptake (Thalamus [15]) was 0.96, the Ratio [54] was 1.1 and the Drug uptake (Pons [16]) was 3.29. The Drug uptake (Putamen [17]) was 4.16, the Drug uptake (Putamen [18]) was 0.1 and the Ratio [19] was 1.3. For the same compound, the Drug uptake (Midbrain [20]) was 1.87, the Ratio [21] was 1 and the Drug uptake (Medulla [22]) was 2.43. For the same compound, the Ratio [23] was 2.2, the Drug uptake (Midbrain [24]) was 4.9 and the Drug uptake (Caudate [25]) was 0.08. The Drug uptake (Medulla [27]) was 2.32, the Drug uptake (Midbrain [28]) was 4.34 and the Ratio [55] was 1.1. The Drug uptake (Putamen [31]) was 3.07, the Drug uptake (Putamen [32]) was 0.96 and the Drug uptake (Thalamus [33]) was 4.02. For the same compound, the Drug uptake (Midbrain [34]) was 4.18, the Drug uptake [35] was 2.86 and the Drug uptake (Putamen [36]) was 3.74. It also gave a Drug uptake [37] of 0.28, a Drug uptake (Medulla [39]) of 3.24 and a Drug uptake [41] of 2.78. It also gave a Drug uptake (Caudate [43]) of 2.94, a Drug uptake (Midbrain [44]) of 0.54 and a Drug uptake (Pons [45]) of 2.4. The Ratio [46] was 1.1, the Ratio [56] was 1.7 and the Drug uptake (Caudate [47]) was 0.79. The Ratio [57] was 1, the Drug uptake [49] was 3.71 and the Ratio [50] was 1.8. It also gave a Drug uptake (Caudate [51]) of 1.99.
